Active and inactive are the calls of the source. No cut-off for these calls is given here.
Assays:
[1] = Effect on Wnt signaling pathway in human SW480 cells harbouring TCF/LEF luciferase reporter gene and SP5-Luc reporter gene incubated for 36 to 48 hrs by luminescence assay; type: cell-based
[2] = molecular target: Dual specificity tyrosine-phosphorylation-regulated kinase 1A (Homo sapiens, UniProt Q13627); assay: Inhibition of recombinant DYRK1A (unknown origin) using Ser/Thr 18 peptide as substrate incubated for 1 hr in presence of ATP by FRET assay
[3] = molecular target: Dual specificity protein kinase CLK2 (Homo sapiens, UniProt P49760); assay: Inhibition of recombinant CLK2 (unknown origin) using Ser/Thr 6 peptide as substrate incubated for 1 hr in presence of ATP by FRET assay
[4] = molecular target: Dual specificity protein kinase CLK3 (Homo sapiens, UniProt P49761); assay: Inhibition of recombinant CLK3 (unknown origin) using Ser/Thr 18 peptide as substrate incubated for 1 hr in presence of ATP by FRET assay
[5] = Inhibition of IL1-beta induced MMP3 expression levels in human chondrocytes assessed as MMP3 levels incubated for 2hrs followed by IL1-beta stimulation and measured after overnight incubation by LANCE assay; type: functional, cell-based; details: Chondrocyte
[6] = Induction of chondrogenesis in human MSC assessed as maximum activity at 30 nM incubated for 6 days by rhodamine B and Nile red staining based imaging analysis relative to control; type: functional; details: BMMSC, 144 h, time 6 day
[7] = system: Chondrocyte; assay: Inhibition of IL1-beta induced MMP3 expression levels in human chondrocytes assessed as MMP3 levels incubated for 2hrs followed by IL1-beta stimulation and measured after 24 hrs by qRT-PCR analysis; type: functional; details: time 26.0 hrs
[8] = Inhibition of IL1-beta induced MMP3 expression levels in human chondrocytes assessed as MMP3 levels incubated for 2hrs followed by IL1-beta stimulation and measured after overnight incubation by LANCE assay relative to control; type: functional, Chondrocyte
[9] = Induction of chondrogenesis in human MSC assessed as maximum activity at 300 nM incubated for 6 days by rhodamine B and Nile red staining based imaging analysis relative to control; type: functional; details: BMMSC, 144 h, time 6 day
[10] = Induction of chondrogenesis in human MSC assessed as maximum activity at 2700 nM incubated for 6 days by rhodamine B and Nile red staining based imaging analysis relative to control; type: functional; details: BMMSC, 144 h, time 6 day
[11] = Induction of chondrogenesis in human MSC assessed as incubated for 6 days by rhodamine B and Nile red staining based imaging analysis; type: functional; details: bmmsc
[12] = Induction of chondrogenesis in human MSC assessed as maximum activity at 100 nM incubated for 6 days by rhodamine B and Nile red staining based imaging analysis relative to control; type: functional; details: BMMSC, 144 h, time 6 day
[13] = Induction of chondrogenesis in human MSC assessed as maximum activity at 10 nM incubated for 6 days by rhodamine B and Nile red staining based imaging analysis relative to control; type: functional; details: BMMSC, 144 h, time 6 day

Chain of Dual specificity protein kinase CLK2 (P49760 whole entry): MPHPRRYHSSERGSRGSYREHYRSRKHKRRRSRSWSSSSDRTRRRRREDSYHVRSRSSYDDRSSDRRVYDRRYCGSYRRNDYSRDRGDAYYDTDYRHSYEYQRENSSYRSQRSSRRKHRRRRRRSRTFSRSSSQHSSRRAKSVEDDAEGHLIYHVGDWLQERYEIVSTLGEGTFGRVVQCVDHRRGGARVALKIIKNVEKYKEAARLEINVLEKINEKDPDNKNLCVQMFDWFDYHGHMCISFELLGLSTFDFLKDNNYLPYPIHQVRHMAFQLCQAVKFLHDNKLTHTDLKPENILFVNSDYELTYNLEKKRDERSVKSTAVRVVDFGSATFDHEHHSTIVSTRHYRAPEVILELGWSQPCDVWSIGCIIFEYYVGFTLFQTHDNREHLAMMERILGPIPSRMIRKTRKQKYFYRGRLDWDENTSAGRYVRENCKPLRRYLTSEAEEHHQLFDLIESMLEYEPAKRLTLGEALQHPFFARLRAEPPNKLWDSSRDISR
Chain of Dual specificity protein kinase CLK3 (P49761 whole entry): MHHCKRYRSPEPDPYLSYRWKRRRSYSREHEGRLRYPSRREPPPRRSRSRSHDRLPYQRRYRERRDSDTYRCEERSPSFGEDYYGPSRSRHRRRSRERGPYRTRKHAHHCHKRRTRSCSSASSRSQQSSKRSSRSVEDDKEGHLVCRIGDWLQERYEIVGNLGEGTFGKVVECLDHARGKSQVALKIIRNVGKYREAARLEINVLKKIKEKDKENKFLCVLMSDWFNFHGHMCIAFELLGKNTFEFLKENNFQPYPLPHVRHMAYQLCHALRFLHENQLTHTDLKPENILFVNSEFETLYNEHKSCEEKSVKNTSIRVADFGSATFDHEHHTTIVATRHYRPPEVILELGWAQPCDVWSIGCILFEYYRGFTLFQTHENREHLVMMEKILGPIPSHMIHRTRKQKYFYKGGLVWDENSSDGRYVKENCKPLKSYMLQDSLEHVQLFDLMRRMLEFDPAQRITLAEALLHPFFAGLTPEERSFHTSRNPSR

SMILES	EC50 [1]	EC50 [2]	EC50 [3]	EC50 [4]	EC50 [5]	EC50 [11]	Emax at 0.03 µM [6]	Activity [7]	Imax [8]	Emax at 0.3 µM [9]	Emax at 2.7 µM [10]	Emax at 0.1 µM [12]	Emax at 0.01 µM [13]
CC(C)N1CCC(Oc2cc(C(=O)Nc3cc4cc(-c5cnn6c5CCNC6)ccc4cn3)ccn2)CC1	–	11 nM	–	–	75.8 nM	–	–	inactive	–	–	–	–	–
Cn1cc(-c2ccc3cnc(NC(=O)c4cnc5ccccc5c4)cc3c2)cn1	–	–	4 nM	66 nM	19.1 nM	–	–	–	41.2%	–	–	–	–
O=C(Nc1ccc(CN2CCCC2)cc1)c1n[nH]cc1/C=C/c1cccnc1	988 nM	4 nM	–	–	3.7 nM	900 nM	–	–	–	–	194%	–	–
CC(C)NC(=O)c1n[nH]c2ccc(-c3cncc(CN4CCC(F)(F)CC4)c3)cc12	47.1 nM	–	–	–	8 nM	2700 nM	–	–	–	–	104%	–	–
CN(C)Cc1cncc(-c2cnc3[nH]nc(-c4cc5c(-c6cccc(F)c6)nccc5[nH]4)c3c2)c1	1170 nM	91 nM	4 nM	74 nM	–	10 nM	–	–	–	–	–	–	110%
O=C(Nc1cc2cc(-c3cnco3)cnc2cn1)C1CCNCC1	> 10000 nM	40 nM	> 10000 nM	> 10000 nM	35.8 nM	–	–	–	–	–	–	–	–
Cc1n[nH]c2ccc(-c3cncc(O[C@H]4CCNC[C@H]4F)n3)cc12	834 nM	21 nM	5 nM	1760 nM	–	30 nM	54.2%	–	–	–	–	–	–
Cc1n[nH]c2ccc(-c3cncc(O[C@H]4CCNCC4(F)F)n3)cc12	227 nM	2 nM	3 nM	313 nM	–	300 nM	–	–	–	82.1%	–	–	–
NC1CN(c2cncc(-c3ccc4[nH]nc(-c5nc6ccncc6[nH]5)c4c3)n2)C1	344 nM	3 nM	1 nM	182 nM	20.8 nM	–	–	–	61.5%	–	–	–	–
O=C(N[C@H]1C[C@@H]1c1ccccc1)c1n[nH]c2ccc(-c3cccnc3)cc12	1390 nM	4 nM	10 nM	6150 nM	1.6 nM	–	–	–	–	–	–	–	–
O=C(Nc1ccc(N2CCC(F)(F)C2)nc1)c1n[nH]cc1C#Cc1cccnc1	> 10000 nM	21 nM	32 nM	> 10000 nM	3000 nM	–	–	–	88.5%	–	–	–	–
COc1cncc(C#Cc2c[nH]nc2C(=O)Nc2ccc(OC3CCN(C)CC3)nc2)c1	3570 nM	9 nM	–	> 10000 nM	3000 nM	–	–	–	3.4%	–	–	–	–
CN(C)CCNc1cc(F)cc(-c2cccc3[nH]c(-c4n[nH]c5cnc(-c6cncc(NC(=O)C(C)(C)C)c6)cc45)cc23)c1	386 nM	45 nM	6 nM	49 nM	–	10 nM	87.3%	–	–	–	–	–	–
CC(C)Nc1cncc(-c2ccc3[nH]nc(-c4nc5c(-c6cc(F)cc(NCCN(C)C)c6)cncc5[nH]4)c3n2)c1	1660 nM	9 nM	–	–	3000 nM	300 nM	–	–	–	–	96.8%	–	–
Cc1ccc(C(=O)Nc2c[nH]nc2C(=O)Nc2ccc(OCCN3CCCC3)nc2)cn1	119 nM	27 nM	24 nM	3700 nM	811 nM	–	–	–	23.7%	–	–	–	–
Oc1cncc(-c2ccc3[nH]nc(-c4nc5c(-c6cccc(F)c6)ccnc5[nH]4)c3c2)c1	11 nM	12 nM	17 nM	45 nM	–	–	–	–	–	–	–	52.2%	–
Cc1nnc(-c2ccc3cnc(NC(=O)c4ccnc(C5=CCN(C)CC5)c4)cc3c2)s1	–	–	2 nM	14 nM	143 nM	–	–	–	35.3%	–	–	–	–

Further lines, with some results ahead:

EC50 [1]	EC50 [2]	EC50 [3]	EC50 [4]	EC50 [5]	EC50 [11]	SMILES	Emax at 0.03 µM [6]	Activity [7]	Imax [8]	Emax at 0.3 µM [9]	Emax at 2.7 µM [10]	Emax at 0.1 µM [12]	Emax at 0.01 µM [13]
809 nM	45 nM	37 nM	3950 nM	3000 nM	–	Cc1n[nH]c2ccc(-c3cncc(N[C@H](CO)Cc4cccc(C(F)(F)F)c4)n3)cc12	–	–	–	–	–	–	–
61.5 nM	8 nM	3 nM	21 nM	–	–	CCCC(=O)Nc1cncc(-c2cc3c(-c4nc5c(-c6ccsc6)cncc5[nH]4)n[nH]c3cn2)c1	42%	–	–	–	–	–	–
> 10000 nM	11 nM	9 nM	1900 nM	–	–	CN1CCN(c2nccc3[nH]c(-c4n[nH]c5ncc(-c6cncc(CN7CCCCC7)c6)cc45)cc23)CC1	–	–	–	50.7%	–	–	–
256 nM	9 nM	1 nM	1420 nM	1050 nM	–	Cc1n[nH]c2ccc(-c3cncc(NC4CCNCC4)n3)cc12	–	–	–	–	–	–	–
1030 nM	1 nM	8 nM	717 nM	4 nM	–	O=C(N[C@H]1C[C@@H]1c1ccccc1)c1n[nH]c2ccc(-c3cncc(CN4CCCCC4)c3)cc12	–	–	–	–	–	–	–
672 nM	11 nM	1 nM	1720 nM	–	100 nM	Cc1n[nH]c2ccc(-c3cncc(O[C@H]4CCNC[C@@H]4F)n3)cc12	–	–	–	–	–	44.9%	–
6 nM	12 nM	5 nM	48 nM	–	100 nM	Fc1cccc(-c2cncc3[nH]c(-c4n[nH]c5ncc(-c6cccnc6)cc45)nc23)c1	–	–	–	157%	–	–	–
–	–	–	–	3000 nM	–	CN1CCC(Oc2ccc(C(=O)Nc3cc4cc(-c5cnn(C)c5)ccc4cn3)cc2)CC1	–	inactive	–	–	–	–	25.4%
2.8 nM	–	–	–	–	2700 nM	C[C@@H]1CN(c2ccc(NC(=O)c3n[nH]c4ccc(-c5cncc(CN6CCCCC6)c5)cc34)cn2)C[C@H](C)O1	–	–	–	–	129%	–	–
3380 nM	> 10000 nM	–	> 10000 nM	6.7 nM	–	O=C(Nc1cncc(-c2ccc3[nH]nc(-c4nc5c(-c6cccs6)cccc5[nH]4)c3n2)c1)C1CC1	–	–	72%	–	–	–	–
19.1 nM	80 nM	21 nM	90 nM	–	10 nM	Fc1cccc(-c2ccnc3[nH]c(-c4n[nH]c5ccc(-c6cncc(CN7CCC(F)(F)C7)c6)cc45)nc23)c1	85.8%	–	–	–	–	–	–
1210 nM	19 nM	–	> 10000 nM	3000 nM	–	COc1cncc(C#Cc2c[nH]nc2C(=O)Nc2ccc(OCCN3CCCC3)nc2)c1	–	–	2.4%	–	–	–	–
–	–	10 nM	78 nM	1060 nM	–	CN1CCN(c2cc(CC(=O)Nc3cc4cc(-c5cnn(C)c5)ccc4cn3)ccn2)CC1	–	–	100%	–	–	–	–
> 10000 nM	2 nM	–	–	1150 nM	100 nM	Cc1cn(-c2cncc3[nH]c(-c4n[nH]c5ccc(-c6cncc(NC(=O)C(C)(C)C)c6)nc45)nc23)cn1	–	–	–	–	150%	–	–
226 nM	3 nM	1 nM	81 nM	3000 nM	–	CN1CCN(c2ccc(NC(=O)c3n[nH]c4ccc(-c5cncc(NC(=O)c6c(F)cccc6F)c5)cc34)cn2)CC1	–	–	54.9%	–	–	–	–
> 10000 nM	21 nM	11 nM	> 10000 nM	–	–	O=C(CC1CCNCC1)Nc1cncc(-c2cnc3[nH]nc(-c4cc5c(-c6ccncc6)ccnc5[nH]4)c3c2)c1	26.7%	–	–	–	–	–	–
–	–	3 nM	49 nM	3000 nM	–	Cn1cc(-c2ccc3cnc(NC(=O)c4ccc5c(cnn5C)c4)cc3c2)cn1	–	–	46.9%	–	–	–	–
445 nM	5 nM	1 nM	52 nM	–	10 nM	CCC(=O)Nc1cncc(-c2ccc3[nH]nc(-c4cc5c(N6CCCCC6)nccc5[nH]4)c3c2)c1	244%	–	–	–	–	–	–
–	–	–	–	3000 nM	–	Cn1cncc1-c1ccc2cnc(NC(=O)c3ccc(F)cc3)cc2c1	–	–	–	–	24.9%	–	–
1270 nM	40 nM	4 nM	49 nM	–	–	CN(C)CCNc1cc(F)cc(-c2cccc3[nH]c(-c4n[nH]c5ccc(-c6cncc(CN7CCCCC7)c6)nc45)cc23)c1	48.5%	–	–	–	–	–	–
1080 nM	> 10000 nM	–	> 10000 nM	0.2 nM	–	O=C(Nc1cncc(-c2ccc3[nH]nc(-c4nc5c(-c6cccc(F)c6)cccc5[nH]4)c3n2)c1)C1CC1	–	–	70%	–	–	–	–
90.3 nM	4 nM	–	–	1.5 nM	2700 nM	CC(C)Oc1cncc(C(=O)Nc2c[nH]nc2C(=O)Nc2ccc(OC3CCN(C)CC3)nc2)c1	–	–	–	–	140%	–	–
–	–	3 nM	–	304 nM	–	CN1CCN(c2ccc(C(=O)N3CCN(c4cc(C(=O)Nc5cc6cc(-c7cnn(C)c7)ccc6cn5)ccn4)CC3)cn2)CC1	–	–	–	–	–	–	–
> 10000 nM	–	> 10000 nM	> 10000 nM	3000 nM	–	CN1CCC(C(=O)Nc2cc3cc(-c4cnsc4)cnc3cn2)CC1	–	–	–	–	–	–	–
